How the values were obtained:
[1] = molecular target: T1, human serotonin transporters (Homo sapiens, UniProt P31645); experiment: Serotonin transporter binding assay ([3H]-citalopram competition, HEK-hSERT cell membranes); settings: Table 1; HEK-hSERT membranes, [3H]-citalopram displacement; read-out: SERT IC50
T1 construct: expressed in transfected cells
In short: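 Membranes from HEK-293 cells stably expressing hSERT incubated 1 hr at 25 °C with 1 nM [3H]-citalopram and test compound in 50 mM Tris pH 7.4, 120 mM NaCl, 5 mM KCl; filtration read-out. Nonspecific binding: 10 μM fluoxetine. IC50 from displacement curve; Ki via Cheng–Prusoff.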

[2] = molecular target: T2, neurokinin-1 (NK-1) receptor (Homo sapiens, UniProt P25103); experiment: NK-1 Binding assay ([125I] Substance P competition, U373 cell membranes); settings: Table 1; U373 membranes, [125I] Substance P displacement; read-out: NK-1 IC50
T2 construct: a human glioblastoma-astrocytoma cell line that endogenously expresses the neurokinin-1 (NK-1) receptor; endogenous in cells; host or cells: U373 human glioblastoma-astrocytoma cells (membranes)
T2 sequence (P25103 whole entry): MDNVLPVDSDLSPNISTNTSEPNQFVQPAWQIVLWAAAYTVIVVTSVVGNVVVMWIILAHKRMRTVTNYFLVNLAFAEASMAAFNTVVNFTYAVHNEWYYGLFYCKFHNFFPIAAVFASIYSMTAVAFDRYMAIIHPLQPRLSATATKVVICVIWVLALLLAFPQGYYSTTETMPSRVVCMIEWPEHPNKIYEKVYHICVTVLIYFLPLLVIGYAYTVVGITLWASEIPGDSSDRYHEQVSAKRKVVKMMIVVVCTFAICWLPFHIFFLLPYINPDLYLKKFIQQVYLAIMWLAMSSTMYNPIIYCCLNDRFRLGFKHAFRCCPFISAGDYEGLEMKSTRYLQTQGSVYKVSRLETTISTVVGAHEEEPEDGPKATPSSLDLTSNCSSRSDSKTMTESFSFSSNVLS
In short: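 Membranes were prepared from U373 human glioblastoma-astrocytoma cells, which express NK-1 endogenously, in 50 mM Tris-HCl pH 7.4 with 3 mM MnCl2, BSA and protease inhibitors. IC50 taken as the midpoint of the specific-binding displacement curve.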

T1 sequence (P31645 whole entry): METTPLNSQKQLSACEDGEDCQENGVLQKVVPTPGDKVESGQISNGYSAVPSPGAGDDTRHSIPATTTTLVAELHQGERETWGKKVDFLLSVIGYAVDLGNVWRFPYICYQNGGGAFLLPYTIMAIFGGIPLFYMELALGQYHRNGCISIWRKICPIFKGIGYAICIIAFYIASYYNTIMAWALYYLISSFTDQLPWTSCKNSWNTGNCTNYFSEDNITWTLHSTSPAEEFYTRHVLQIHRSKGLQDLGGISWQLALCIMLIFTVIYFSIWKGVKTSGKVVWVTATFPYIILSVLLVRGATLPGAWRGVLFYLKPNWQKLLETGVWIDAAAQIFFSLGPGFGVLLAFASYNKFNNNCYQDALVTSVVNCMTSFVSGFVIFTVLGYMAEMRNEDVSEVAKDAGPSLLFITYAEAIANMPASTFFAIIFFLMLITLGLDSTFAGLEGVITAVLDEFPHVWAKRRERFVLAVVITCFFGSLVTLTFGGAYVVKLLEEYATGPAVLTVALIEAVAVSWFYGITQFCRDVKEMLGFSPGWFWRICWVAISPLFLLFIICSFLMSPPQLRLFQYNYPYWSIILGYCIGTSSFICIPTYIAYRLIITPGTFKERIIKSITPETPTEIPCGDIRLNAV

IC50 [1] [nM]	IC50 [2] [nM]	SMILES
0.01 to 100	0.01 to 100	FC(F)(F)c1cc(COCC2(c3ccccc3)CCNCC2)cc(-c2cccnc2Cl)c1
0.01 to 100	0.01 to 100	Fc1ccc(-c2cc(COCC3(c4ccccc4)CCNCC3)cc(C(F)(F)F)c2)cc1

Reference: patent US20070249607A1, “NK-1 AND SEROTONIN TRANSPORTER INHIBITORS” (Bristol-Myers Squibb Company, priority 2006, published 2007)
